Test results taken from patent US20200247800A1, “SUBSTITUTED BICYCLIC HETEROCYCLIC COMPOUNDS AS NADPH OXIDASE INHIBITORS” (Glenmark Pharmaceuticals S.A., priority 2017, published 2020).

Molecular target: T1, human NOX4 (Homo sapiens, UniProt Q9NPH5)
T1 construct: expressed in transfected cells; membrane fraction used
T1 sequence (Q9NPH5 1-578): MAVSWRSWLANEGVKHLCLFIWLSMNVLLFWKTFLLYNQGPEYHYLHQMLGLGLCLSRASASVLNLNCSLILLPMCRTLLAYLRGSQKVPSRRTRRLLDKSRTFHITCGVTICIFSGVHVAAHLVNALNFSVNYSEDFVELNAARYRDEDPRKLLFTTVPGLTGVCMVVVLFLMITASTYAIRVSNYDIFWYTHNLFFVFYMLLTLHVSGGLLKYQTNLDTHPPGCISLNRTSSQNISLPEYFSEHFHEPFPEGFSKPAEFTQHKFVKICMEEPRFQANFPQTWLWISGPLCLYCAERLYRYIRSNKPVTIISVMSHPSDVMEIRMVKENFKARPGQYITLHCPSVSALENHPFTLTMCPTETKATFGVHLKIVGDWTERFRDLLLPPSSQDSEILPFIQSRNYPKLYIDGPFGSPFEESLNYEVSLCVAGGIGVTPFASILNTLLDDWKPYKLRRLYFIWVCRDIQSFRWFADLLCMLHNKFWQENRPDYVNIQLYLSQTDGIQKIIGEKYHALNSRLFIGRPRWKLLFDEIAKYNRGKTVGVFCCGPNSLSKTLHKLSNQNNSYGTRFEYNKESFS
T1 sequence (P13498 1-195 partner): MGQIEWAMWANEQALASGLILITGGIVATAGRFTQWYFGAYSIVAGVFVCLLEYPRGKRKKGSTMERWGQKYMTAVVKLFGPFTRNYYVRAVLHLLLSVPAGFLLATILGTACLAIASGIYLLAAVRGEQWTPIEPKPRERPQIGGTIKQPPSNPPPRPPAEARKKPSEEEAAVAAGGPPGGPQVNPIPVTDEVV
Assay: Cell free membrane based in vitro NOX4 assay: H2O2 production by membranes expressing human NOX4, measured with Amplex Red
Assay type: biochemical
Conditions: for inhibition at 1 µM: 1.0 μM compound, read-out: Percentage inhibition at 1.0 μM; for inhibition at 10 µM: 10.0 μM compound, read-out: Percentage inhibition at 10.0 μM; for IC50: class symbols
Outline: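 IC50 came from concentration-response curves fitted as % of the inhibitor-free maximum. H2O2 formation was monitored for 10 min via Amplex Red/HRP fluorescence (544/590 nm) after NADPH start. Membranes from a stable hNOX4/HEK line had 20 min exposure to inhibitor beforehand at pH 7.4.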

Compound	inhibition at 1 µM [%]	inhibition at 10 µM [%]	IC50 [nM]
Cn1nc(CN2CCN(CC(F)(F)F)CC2)c2c(=O)c(O)c(-c3c(F)cccc3F)[nH]c21 [Example 196, 3-((4-(2,2,2-trifluoroethyl)piperazin-1-yl)methyl)-6-(2,6-difluorophenyl)-5-hydroxy-1-methyl-1H-pyrazolo[3,4-b]pyridin-4(7H)-one]	100	100	100 to 150
C[C@@H]1CN(Cc2nn(C)c3[nH]c(-c4c(F)cccc4F)c(O)c(=O)c23)C[C@H](C)O1 [Example 197, 6-(2,6-Difluorophenyl)-3-((2,6-dimethylmorpholino)methyl)-5-hydroxy-1-methyl-1H-pyrazolo[3,4-b]pyridin-4(7H)-one]	100	100	100 to 150
Cn1nc(CO)c2c(=O)c(O)c(-c3ccccc3Cl)[nH]c21 [Example 198, 6-(2-Chlorophenyl)-5-hydroxy-3-(hydroxymethyl)-1-methyl-1H-pyrazolo[3,4-b]pyridin-4(7H)-one]	87.7	86.7	50 to 100
Cn1nc(CN2CCOCC2)c2c(=O)c(O)c(-c3ccccc3Cl)[nH]c21 [Example 199, 6-(2-Chlorophenyl)-5-hydroxy-1-methyl-3-(morpholinomethyl)-1H-pyrazolo[3,4-b]pyridin-4(7H)-one]	86.8	93.5	100 to 150
CCc1nn(CCN2C[C@@H](C)O[C@@H](C)C2)c2[nH]c(-c3c(F)cccc3F)c(O)c(=O)c12 [Example 200, 6-(2,6-Difluorophenyl)-1-(2-((2R,6S)-2,6-dimethylmorpholino)ethyl)-3-ethyl-5-hydroxy-1H-pyrazolo[3,4-b]pyridin-4(7H)-one]	91.4	90.7	< 50
O=c1c(O)c(-c2c(F)cccc2F)[nH]c2c1c(CN1CCOCC1)nn2C1CC1 [Example 201, 1-Cyclopropyl-6-(2,6-difluorophenyl)-5-hydroxy-3-(morpholinomethyl)-1H-pyrazolo[3,4-b]pyridin-4(7H)-one]	74	87	> 150
CCc1nn(CCN2C[C@@H](C)O[C@@H](C)C2)c2[nH]c(-c3ccccc3Cl)c(O)c(=O)c12 [Example 202, 6-(2-Chlorophenyl)-1-(2-((2R,6S)-2,6-dimethylmorpholino)ethyl)-3-ethyl-5-hydroxy-1H-pyrazolo[3,4-b]pyridin-4(7H)-one]	82.8	78	100 to 150
CCc1nn(CCO)c2[nH]c(-c3c(F)cccc3F)c(O)c(=O)c12 [Example 203, 6-(2,6-Difluorophenyl)-3-ethyl-5-hydroxy-1-(2-hydroxyethyl)-1H-pyrazolo[3,4-b]pyridin-4(7H)-one]	82.5	77.7	50 to 100
O=c1c(O)c(-c2c(F)cccc2F)[nH]c2c1c(C1CCOCC1)nn2-c1ccc(F)cc1 [Example 204, 6-(2,6-Difluorophenyl)-1-(4-fluorophenyl)-5-hydroxy-3-(tetrahydro-2H-pyran-4-yl)-1H-pyrazolo[3,4-b]pyridin-4(7H)-one]	95.2	99.7	100 to 150
CCc1nn(CCN2CCC(F)(F)CC2)c2[nH]c(-c3c(F)cccc3F)c(O)c(=O)c12 [Example 205, 6-(2,6-Difluorophenyl)-1-(2-(4,4-difluoropiperidin-1-yl)ethyl)-3-ethyl-5-hydroxy-1H-pyrazolo[3,4-b]pyridin-4(7H)-one]	95.9	94.6	50 to 100
CCc1nn(CCCN2C[C@@H](C)O[C@@H](C)C2)c2[nH]c(-c3c(F)cccc3F)c(O)c(=O)c12 [Example 206, 6-(2,6-Difluorophenyl)-1-(3-((2R,6S)-2,6-dimethylmorpholino)propyl)-3-ethyl-5-hydroxy-1H-pyrazolo[3,4-b]pyridin-4(7H)-one]	94.6	91.3	50 to 100
CCc1nn(CC2CCOCC2)c2[nH]c(-c3c(F)cccc3F)c(O)c(=O)c12 [Example 207, 6-(2,6-Difluorophenyl)-3-ethyl-5-hydroxy-1-((tetrahydro-2H-pyran-4-yl)methyl)-1H-pyrazolo[3,4-b]pyridin-4(7H)-one]	87.8	88.2	50 to 100
CCc1nn(CC2CCOCC2)c2[nH]c(-c3ccccc3Cl)c(O)c(=O)c12 [Example 208, 6-(2-Chlorophenyl)-3-ethyl-5-hydroxy-1-((tetrahydro-2H-pyran-4-yl)methyl)-1H-pyrazolo[3,4-b]pyridin-4(7H)-one]	82.5	71.6	100 to 150
Cn1nc(CC2CCOCC2)c2c(=O)c(O)c(-c3c(F)cccc3F)[nH]c21 [Example 209, 6-(2,6-Difluorophenyl)-5-hydroxy-1-methyl-3-((tetrahydro-2H-pyran-4-yl)methyl)-1H-pyrazolo[3,4-b]pyridin-4(7H)-one]	89.5	89.8	50 to 100
CCc1nn(CCN2CCC(F)(F)CC2)c2[nH]c(-c3ccccc3Cl)c(O)c(=O)c12 [Example 210, 6-(2-Chlorophenyl)-1-(2-(4,4-difluoropiperidin-1-yl)ethyl)-3-ethyl-5-hydroxy-1H-pyrazolo[3,4-b]pyridin-4(7H)-one]	91	86.3	> 150
CCc1nn(CCC2CCOCC2)c2[nH]c(-c3c(F)cccc3F)c(O)c(=O)c12 [Example 211]	92.4	93.7	50 to 100
CCc1nn(CCC2CCOCC2)c2[nH]c(-c3ccccc3Cl)c(O)c(=O)c12 [Example 212, 6-(2-Chlorophenyl)-3-ethyl-5-hydroxy-1-(2-(tetrahydro-2H-pyran-4-yl)ethyl)-1H-pyrazolo[3,4-b]pyridin-4(7H)-one]	81.5	71.7	> 150
CCc1nn(CCC2CCOCC2)c2[nH]c(-c3cccc(C(F)(F)F)c3F)c(O)c(=O)c12 [Example 213, 3-Ethyl-6-(2-fluoro-3-(trifluoromethyl)phenyl)-5-hydroxy-1-(2-(tetrahydro-2H-pyran-4-yl)ethyl)-1H-pyrazolo[3,4-b]pyridin-4(7H)-one]	86.9	75.6	> 150
CC(C)CN1CCN(Cc2nn(C)c3[nH]c(-c4c(F)cccc4F)c(O)c(=O)c23)CC1 [Example 214, 6-(2,6-Difluorophenyl)-5-hydroxy-3-((4-isobutylpiperazin-1-yl)methyl)-1-methyl-1H-pyrazolo[3,4-b]pyridin-4(7H)-one]	81.8	85	> 150
O=c1c(O)c(-c2c(F)cccc2F)[nH]c2c1c(CO)nn2CC1CCOCC1 [Example 215, 6-(2,6-difluorophenyl)-5-hydroxy-3-(hydroxymethyl)-1-((tetrahydro-2H-pyran-4-yl)methyl)-1H-pyrazolo[3,4-b]pyridin-4(7H)-one]	78.8	87.3	100 to 150
Cn1nc(CN2CCN(C3CC3)CC2)c2c(=O)c(O)c(-c3c(F)cccc3F)[nH]c21 [Example 216, 3-((4-Cyclopropylpiperazin-1-yl)methyl)-6-(2,6-difluorophenyl)-5-hydroxy-1-methyl-1H-pyrazolo[3,4-b]pyridin-4(7H)-one]	73.4	88.3	> 150
O=c1c(O)c(-c2c(F)cccc2F)[nH]c2c1c(CO)nn2CCC1CCOCC1 [Example 217, 6-(2,6-difluorophenyl)-5-hydroxy-3-(hydroxymethyl)-1-(2-(tetrahydro-2H-pyran-4-yl)ethyl)-1H-pyrazolo[3,4-b]pyridin-4(7H)-one]	83.8	89.7	100 to 150
CCc1nn(CCS(C)(=O)=O)c2[nH]c(-c3c(F)cccc3F)c(O)c(=O)c12 [Example 218, 6-(2,6-Difluorophenyl)-3-ethyl-5-hydroxy-1-(2-(methylsulfonyl)ethyl)-1H-pyrazolo[3,4-b]pyridin-4(7H)-one]	85.5	90.1	50 to 100
Cn1nc(CN2CCN(C3COC3)CC2)c2c(=O)c(O)c(-c3c(F)cccc3F)[nH]c21 [Example 219, 6-(2,6-Difluorophenyl)-5-hydroxy-1-methyl-3-((4-(oxetan-3-yl)piperazin-1-yl)methyl)-1H-pyrazolo[3,4-b]pyridin-4(7H)-one]	81.7	89.2	> 150
